Key:
[1] = molecular target: T1, alpha2 subunit of the GABA-A receptor together with a beta and a gamma subunit (Homo sapiens, UniProt P47869); assay: GABA-A receptor modulation, voltage-sensitive dye fluorescence assay (alpha2); assay type: cell-based; details: transfected eukaryotic cell line; sub-maximal concentration of GABA; fluorescent signal of voltage-sensitive dye
T1 construct: expressed in transfected cells
T1 sequence (P47869 29-451): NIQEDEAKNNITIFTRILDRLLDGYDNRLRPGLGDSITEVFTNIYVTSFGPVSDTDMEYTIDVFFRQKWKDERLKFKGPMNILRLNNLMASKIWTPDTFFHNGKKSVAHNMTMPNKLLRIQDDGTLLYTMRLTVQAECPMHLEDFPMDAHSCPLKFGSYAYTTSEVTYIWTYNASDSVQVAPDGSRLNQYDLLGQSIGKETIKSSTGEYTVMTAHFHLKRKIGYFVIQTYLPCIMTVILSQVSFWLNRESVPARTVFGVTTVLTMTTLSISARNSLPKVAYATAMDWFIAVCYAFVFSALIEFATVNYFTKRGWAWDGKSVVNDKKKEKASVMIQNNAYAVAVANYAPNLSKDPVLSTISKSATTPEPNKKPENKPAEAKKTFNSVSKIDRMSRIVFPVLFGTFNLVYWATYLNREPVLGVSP
T1 sequence (P28472 26-473 partner): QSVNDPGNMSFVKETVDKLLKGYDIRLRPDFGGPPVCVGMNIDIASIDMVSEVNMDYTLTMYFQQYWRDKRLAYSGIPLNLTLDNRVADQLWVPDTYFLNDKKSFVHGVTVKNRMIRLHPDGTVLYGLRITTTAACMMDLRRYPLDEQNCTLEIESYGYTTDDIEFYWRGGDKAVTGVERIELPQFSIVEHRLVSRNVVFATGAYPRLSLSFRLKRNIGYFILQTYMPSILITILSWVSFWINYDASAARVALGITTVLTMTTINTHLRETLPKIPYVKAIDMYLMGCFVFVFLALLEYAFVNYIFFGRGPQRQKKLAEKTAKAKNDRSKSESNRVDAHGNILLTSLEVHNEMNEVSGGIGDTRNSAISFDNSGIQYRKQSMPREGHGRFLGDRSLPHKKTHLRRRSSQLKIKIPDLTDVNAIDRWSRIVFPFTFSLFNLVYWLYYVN
T1 sequence (P18507 40-467 partner limits assumed): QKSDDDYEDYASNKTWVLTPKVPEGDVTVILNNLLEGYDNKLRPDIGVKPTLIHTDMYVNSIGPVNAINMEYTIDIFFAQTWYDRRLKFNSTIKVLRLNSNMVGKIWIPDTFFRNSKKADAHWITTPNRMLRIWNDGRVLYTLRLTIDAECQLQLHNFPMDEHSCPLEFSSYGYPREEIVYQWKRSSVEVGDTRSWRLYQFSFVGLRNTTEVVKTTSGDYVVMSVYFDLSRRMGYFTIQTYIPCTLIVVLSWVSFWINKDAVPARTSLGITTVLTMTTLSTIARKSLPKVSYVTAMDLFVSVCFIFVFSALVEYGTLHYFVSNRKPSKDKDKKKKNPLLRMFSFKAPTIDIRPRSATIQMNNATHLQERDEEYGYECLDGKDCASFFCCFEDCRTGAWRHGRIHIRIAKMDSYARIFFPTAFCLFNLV
Description: GABA-A receptor modulators show in functional assays a positive modulation of GABA-induced signals. This modulation can be determined in vitro, e.g., at recombinant GABA-A receptors expressed in a mammalian cell line, e.g. by measurement of GABA-A receptor induced changes of the trans-membrane voltage, when using a voltage-sensitive dye and a fluorescence detection system (Adkins, C. E., Pillai, G. V., Kerby, J., Bonnert, T. P., Haldon, C., Mckernan, R. M., Gonzalez, J. E., Oades, K., Whiting, P. J. & Simpson, P. B. [2001]. alpha4beta3delta GABA-A receptors characterized by fluorescence resonance energy transfer-derived measurements of membrane potential. J. Biol. Chem., 276, 38934-38939). In this assay, a modulator compound is pre-applied at different concentrations ranging from 0.1 nM to 10 μM to cells expressing GABA-A receptors and loaded with the voltage-sensitive dye, before, or at the same time as, a sub-maximal concentration of GABA (in the range of from 0.1 to 10 μM) is applied to the cells. The fluorescent signal is correlated with the degree of GABA-A receptor channel opening. This allows the quantification of effects induced by the modulator in a functional manner. By expression of different GABA-A receptor subunit combinations, the differential efficacy of a modulator at different GABA-A receptor variants can be tested. […]

[2] = molecular target: T2, alpha1 subunit of the GABA-A receptor together with a beta and a gamma subunit (Homo sapiens, UniProt P14867); assay: GABA-A receptor modulation, voltage-sensitive dye fluorescence assay (alpha1); assay type: cell-based; details: transfected eukaryotic cell line; sub-maximal concentration of GABA; fluorescent signal of voltage-sensitive dye
T2 construct: expressed in transfected cells
T2 sequence (P14867 28-456): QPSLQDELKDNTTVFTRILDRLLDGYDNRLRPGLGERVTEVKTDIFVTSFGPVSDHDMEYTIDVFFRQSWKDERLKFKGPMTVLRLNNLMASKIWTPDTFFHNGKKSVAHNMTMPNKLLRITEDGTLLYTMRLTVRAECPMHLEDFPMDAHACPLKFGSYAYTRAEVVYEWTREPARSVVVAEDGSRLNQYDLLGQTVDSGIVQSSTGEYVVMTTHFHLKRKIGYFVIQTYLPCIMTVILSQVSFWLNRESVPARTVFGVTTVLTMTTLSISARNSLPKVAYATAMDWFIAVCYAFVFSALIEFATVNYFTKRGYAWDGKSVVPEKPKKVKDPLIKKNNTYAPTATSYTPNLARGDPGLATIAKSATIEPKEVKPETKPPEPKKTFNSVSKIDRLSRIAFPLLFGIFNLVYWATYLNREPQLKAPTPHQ
T2 sequence (P47870 25-512 partner limits assumed): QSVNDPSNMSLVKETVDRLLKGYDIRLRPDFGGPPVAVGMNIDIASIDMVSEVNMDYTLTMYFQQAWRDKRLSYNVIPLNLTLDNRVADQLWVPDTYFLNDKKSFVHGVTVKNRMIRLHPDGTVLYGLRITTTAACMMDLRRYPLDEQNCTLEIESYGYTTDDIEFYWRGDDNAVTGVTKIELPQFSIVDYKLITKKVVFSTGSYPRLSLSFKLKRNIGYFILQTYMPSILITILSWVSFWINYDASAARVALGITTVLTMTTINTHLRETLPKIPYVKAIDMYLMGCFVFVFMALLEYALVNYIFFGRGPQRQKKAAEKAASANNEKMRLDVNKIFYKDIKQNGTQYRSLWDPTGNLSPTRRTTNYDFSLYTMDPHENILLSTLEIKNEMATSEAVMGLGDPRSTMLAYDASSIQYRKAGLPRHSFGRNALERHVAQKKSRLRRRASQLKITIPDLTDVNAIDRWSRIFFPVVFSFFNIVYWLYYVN
T2 sequence (P18507 40-467 partner limits assumed): T1 sequence (P18507 40-467 partner limits assumed)

Clc1ccc(-n2nc3c4c(ncc3c2OCc2ccccc2Cl)CCCC4)cc1 [Example 1, 3-(2-Chloro-benzyloxy)-2-(4-chloro-phenyl)-6,7,8,9-tetrahydro-2H-pyrazolo[4,3-c]quinoline]
modulation of the GABA-induced response, alpha2 subunit [1]: 140%
modulation of the GABA-induced response, alpha1 subunit [2]: 37%

Reference: patent US20110195950A1, “Organic Compounds” (NOVARTIS AG, priority 2007, published 2011)
